Results from patent US8252557B2, “Peptide-containing culture medium for culturing animal cell” (Chugai Seiyaku Kabushiki Kaisha, priority 2008, dated 2012).

Test system: humanized IgG (anti-glypican-3 antibody)-producing CHO cell line
Assay: Antibody-producing fed-batch culture, CHO cell line transfected with antibody gene
Assay type: cell-based
Conditions: for concentration of lactic acid during culture: compared to fed-batch medium not containing the peptide; for antibody concentration after the 14-day culture: fed day 3-14 at 1.0 g/hr per L, control about 1.6 g/L; for antibody concentration higher than control: peptide-containing fed-batch medium vs fed-batch medium without peptide, day 14
Procedure: (§1) The initial culture medium was placed in a jar-type cell culture system, and then the CHO cell line was added thereto into a concentration of 2×10^5 cells/mL and was cultured under the conditions of 37° C. and 10% CO2. During the culture period of 14 days, a pH level of not lower than 7.0 and a dissolved oxygen level of 40% were automatically maintained. The fed-batch medium was continuously fed from the 3rd day to the 14th day of the culture at a constant flow rate (1.0 g/hr for 1 L of the initial culture medium). The culture medium was sampled at the start of the culture and on the 3rd, 5th, 7th, 10th, 12th, and 14th days. The number of viable cells in each sampled culture solution was counted by trypan blue staining. The antibody concentration in the centrifuged supernatant of each culture solution was measured by affinity chromatography using protein A, and the concentration of lactic acid was measured by an immobilized enzyme process.
as §1, with “concentration” for “number”, “the produced” for “viable cells in each sampled culture solution was counted by trypan blue staining. The”, “antibody” for “antibody concentration”, “the” for “the centrifuged”, “sample” for “solution”, “A; the survival rate was measured by trypan blue staining;” for “A,”

[1] = fed-batch medium containing 50 mM of the peptide

Cys-Tyr-Ser [tripeptide]
concentration of lactic acid during culture: relatively low levels from the 3rd day to the 10th day
antibody concentration after the 14-day culture (fed-batch medium containing 25 mM of the tripeptide): about 2.1 g/L
antibody concentration after the 14-day culture [1]: about 2.1 g/L
antibody concentration higher than control: about 30%

Cys-Tyr [dipeptide]
concentration of lactic acid during culture: relatively low levels from the 5th day to the 10th day
antibody concentration after the 14-day culture [1]: about 2.0 g/L
antibody concentration higher than control: about 25%
